Source: patent US10981911B2, “Imidazopyrrolopyridine as inhibitors of the JAK family of kinases” (Janssen Pharmaceutica NV, priority 2016, dated 2021)

How the values were obtained:
Format in all cases: biochemical
Tyk2-JH1JH2 = Tyk2-JH1JH2 (Homo sapiens (Human), UniProt P29597, C1142A/C936A); experiment: Enzymatic inhibition assay (RapidFire HTMS), Tyk2; conditions: 50 μM ATP, 200 μM substrate
Text: (§1) LC/MS grade Water and Acetonitrile (ACN), were purchased from HoneyWell, Burdick & Jackson (Muskegon, Mich., USA). Dimethylsulfoxide 99.8% (DMSO) and Trifluoroacetic Acid 99.5% (TFA) were purchased from EMD Chemical (Gibbstown, N.J., USA). Adenosine triphosphate (ATP), 4-Morpholinepropanesulfonic acid (MOPS), Magnesium chloride (MgCl2), ethylenediaminetetraacetic acid (EDTA), dithiothreitol (DTT), formic acid >95% (FA) and Tween-20 were purchased from Sigma (St Louis, Mo., USA). 384-well polypropylene plates, Cat #781280 were purchased from Greiner (Monroe, N.C.), RapidFire™ cartridge A C4 Column (Agilent Technologies, Santa Clara, Calif.).
(§2) The HTMS experiments were performed in positive ionization mode on a RapidFire 300 instrument (Agilent Technologies, Santa Clara, Calif.), coupled with an ABSiex QTrap 4000 system with an Electrospray Ionization source (RF-MS) (Concord, ON, Canada). […] The entire system was operated using the RapidFire software interfaced with Analyst software for the mass spectrometer.
(§3) 11-point dosing series were made for each compound by serially diluting 1:3 or 1:4 in DMSO, with point 12 being a DMSO control. From the serial dilution plates, sample was transferred to a 384 wells assay plate (#781280, Greiner, Monroe, N.C.) using Labcyte Echo (Sunnyvale, Calif.), or Biosero ATS (San Diego, Calif.). The compounds were tested in duplicate. Column 12 was used for positive controls, and column 24 contained negative controls with no enzyme added. A compound from our internal collection, with inhibitory activity for JAK isoforms, was used as a reference compound. The final concentration of DMSO was ≤0.25% in a 20 μL reaction. […] The Tyk2 enzyme was pre-incubated with 2 mM ATP for 30 min prior to the reaction initiation. Immediately after the addition of the enzyme to the reaction mixture, the plate was centrifuged at 1000 rpm for 1 minute and incubated at 25° C. for 45 minutes for JAK 3 and 90 minutes for JAK1, JAK2 and Tyk2. The reaction was quenched by the addition of 20 μL of 0.5% TFA containing 0.15 μM of internal standard peptide using Multidrop Combi reagent dispenser (Thermo Scientific, Waltham, Mass.). […] After the quench, the assay plate was centrifuged at 3000 rpm for 3 minutes and sealed with pierceable aluminum foil (Cat #06644-001, Agilent) using a PlateLoc (Agilent Technologies, Santa Clara, Calif.). The plates then were transferred on to the RapidFire for the MS analysis. Compound inhibition was assessed by a decrease of the phosphorylated product levels in sample wells compared to the non-inhibited enzyme reaction.
(§4) The sample analysis on the RapidFire was performed using a mobile phase A consisting of Water/TFA/FA (100:0.01:0.1, v/v/v), a mobile phase B consisting of ACN/Water/TFA/FA (80:20:0.01:0.1, v/v/v). […] The samples were aspirated directly from the 384 assay plate and delivered onto RF-MS microscale solid-phase C4 extraction cartridge (Type A). The undesired component such as salt, cofactor, detergent and large protein were washed out and the retained analytes (substrate, product and IS) were coeluted directly onto the ABSiex Qtrap 4000 system.

JAK3-JH1JH2 = JAK3-JH1JH2 (Homo sapiens (Human), UniProt P52333); experiment: Enzymatic inhibition assay (RapidFire HTMS), JAK3; conditions: 150 μM ATP, 40 μM substrate
Text: as §1, §2
as §3, with “compound.” for “compound. The final concentration of DMSO was ≤0.25% in a 20 μL reaction.”
as §4

JAK1-JH1JH2 = JAK1-JH1JH2 (Homo sapiens (Human), UniProt P23458); experiment: Enzymatic inhibition assay (RapidFire HTMS), JAK1; conditions: 12.5 μM ATP, 200 μM substrate; read-out: JAK1-JH2JH1 IC50
Text: as §1, §2, §3, §4

Sequence of JAK3-JH1JH2 (P52333 512-1124): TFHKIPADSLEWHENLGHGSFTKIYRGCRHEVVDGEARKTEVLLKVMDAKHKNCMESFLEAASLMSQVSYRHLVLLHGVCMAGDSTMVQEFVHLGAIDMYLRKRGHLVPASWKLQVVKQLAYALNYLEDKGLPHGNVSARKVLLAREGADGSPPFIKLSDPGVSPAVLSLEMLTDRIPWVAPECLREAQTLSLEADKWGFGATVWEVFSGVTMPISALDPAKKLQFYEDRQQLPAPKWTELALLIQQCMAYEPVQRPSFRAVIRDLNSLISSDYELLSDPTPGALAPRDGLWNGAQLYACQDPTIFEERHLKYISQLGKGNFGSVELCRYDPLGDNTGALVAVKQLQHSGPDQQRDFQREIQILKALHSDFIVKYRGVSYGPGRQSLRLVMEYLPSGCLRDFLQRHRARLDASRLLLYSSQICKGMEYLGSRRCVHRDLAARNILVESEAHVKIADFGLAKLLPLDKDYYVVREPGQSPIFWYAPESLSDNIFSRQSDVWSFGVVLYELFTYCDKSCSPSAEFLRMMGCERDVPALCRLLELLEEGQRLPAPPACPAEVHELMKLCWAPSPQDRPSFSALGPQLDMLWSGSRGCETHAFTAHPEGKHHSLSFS
Sequence of JAK1-JH1JH2 (P23458 574-1154): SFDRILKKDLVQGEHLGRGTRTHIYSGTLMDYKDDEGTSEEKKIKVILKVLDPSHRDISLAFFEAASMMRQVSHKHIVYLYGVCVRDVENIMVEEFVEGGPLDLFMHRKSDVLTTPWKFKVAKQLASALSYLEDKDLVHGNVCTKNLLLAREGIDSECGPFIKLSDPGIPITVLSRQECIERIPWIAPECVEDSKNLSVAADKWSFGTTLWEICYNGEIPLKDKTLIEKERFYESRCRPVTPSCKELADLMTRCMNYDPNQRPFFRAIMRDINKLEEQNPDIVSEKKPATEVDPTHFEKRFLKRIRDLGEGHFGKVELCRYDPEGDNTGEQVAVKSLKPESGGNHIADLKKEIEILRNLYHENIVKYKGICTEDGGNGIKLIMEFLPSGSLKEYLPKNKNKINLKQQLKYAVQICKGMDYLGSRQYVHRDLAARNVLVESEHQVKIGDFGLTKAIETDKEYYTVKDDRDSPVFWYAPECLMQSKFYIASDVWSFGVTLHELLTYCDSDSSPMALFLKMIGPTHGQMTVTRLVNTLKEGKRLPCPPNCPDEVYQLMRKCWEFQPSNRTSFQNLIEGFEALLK
Sequence of Tyk2-JH1JH2 (P29597 580-1182 C936A/C1142A): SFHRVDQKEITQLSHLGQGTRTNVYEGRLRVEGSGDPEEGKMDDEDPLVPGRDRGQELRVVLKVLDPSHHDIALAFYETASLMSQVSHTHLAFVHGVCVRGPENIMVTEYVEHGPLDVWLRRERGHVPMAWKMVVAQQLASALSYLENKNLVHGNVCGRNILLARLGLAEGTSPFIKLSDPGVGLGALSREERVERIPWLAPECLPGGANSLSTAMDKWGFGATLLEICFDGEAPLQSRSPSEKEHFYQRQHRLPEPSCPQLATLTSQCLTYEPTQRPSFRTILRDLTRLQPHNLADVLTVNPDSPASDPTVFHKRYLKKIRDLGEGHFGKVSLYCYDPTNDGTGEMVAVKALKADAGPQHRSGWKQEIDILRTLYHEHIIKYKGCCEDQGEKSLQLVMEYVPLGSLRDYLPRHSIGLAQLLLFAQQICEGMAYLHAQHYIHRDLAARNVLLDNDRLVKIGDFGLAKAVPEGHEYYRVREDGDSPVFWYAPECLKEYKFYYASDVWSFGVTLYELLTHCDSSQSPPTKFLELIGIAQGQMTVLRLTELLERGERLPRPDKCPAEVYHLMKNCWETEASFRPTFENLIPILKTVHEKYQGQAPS

| Structure (SMILES) | IC50 (Tyk2-JH1JH2) [nM] | IC50 (JAK3-JH1JH2) [nM] | IC50 (JAK1-JH1JH2) [nM] |
| --- | --- | --- | --- |
| N#CC[C@H]1CC[C@H](n2c(CC(=O)N3CCC(C(F)(F)F)CC3)nc3cnc4[nH]ccc4c32)CC1 [Ex. 6, 2-((1r,4r)-4-(2-(2-Oxo-2-(4-(trifluoromethyl)piperidin-1-yl)ethyl)imidazo[4,5-d]pyrrolo[2,3-b]pyridin-1(6H)-yl)cyclohexyl)acetonitrile] | 0.4 | 49.4 | – |
| N#CC[C@H]1CC[C@H](n2c(-c3cocn3)nc3cnc4[nH]ccc4c32)CC1 [Ex. 11, 2-((1r,4r)-4-(2-(Oxazol-4-yl)imidazo[4,5-d]pyrrolo[2,3-b]pyridin-1(6H)-yl)cyclohexyl)acetonitrile] | 1.2 | 33.5 | 0.1 |
| N#CC[C@H]1CC[C@H](n2c(CC(=O)NCC34CC5CC(CC(O)(C5)C3)C4)nc3cnc4[nH]ccc4c32)CC1 [Ex. 21, 2-(1-((1r,4r)-4-(Cyanomethyl)cyclohexyl)-1,6-dihydroimidazo[4,5-d]pyrrolo[2,3-b]pyridin-2-yl)-N-(((1S,3R,5R,7S)-3-hydroxyadamantan-1-yl)methyl)acetamide] | 3.5 | 55.1 | 0.1 |
| N#CC[C@H]1CC[C@H](n2c(CC(=O)NC34CC5CC(CC(O)(C5)C3)C4)nc3cnc4[nH]ccc4c32)CC1 [Ex. 52, 2-(1-((1r,4r)-4-(Cyanomethyl)cyclohexyl)-1,6-dihydroimidazo[4,5-d]pyrrolo[2,3-b]pyridin-2-yl)-N-((1s,3r,5R,7S)-3-hydroxyadamantan-1-yl)acetamide] | 4.4 | 57.5 | 0.2 |
| C[Si](C)(C)C1CCC(c2nc3cnc4[nH]ccc4c3n2[C@H]2CC[C@H](CC#N)CC2)CC1 (stereo partly drawn) [Ex. 100, 2-((1r,4r)-4-(2-(4-(Trimethylsilyl)cyclohexyl)imidazo[4,5-d]pyrrolo[2,3-b]pyridin-1(6H)-yl)cyclohexyl)acetonitrile] | 2280 | > 6250 | 72 |
| N#CC[C@H]1CC[C@H](n2c(C(=O)NCC3(O)CCCCCC3)nc3cnc4[nH]ccc4c32)CC1 [Ex. 136, 1-((1r,4r)-4-(Cyanomethyl)cyclohexyl)-N-((1-hydroxycycloheptyl)methyl)-1,6-dihydroimidazo[4,5-d]pyrrolo[2,3-b]pyridine-2-carboxamide] | 19.1 | 65.9 | 0.9 |
| N#CC[C@H]1CC[C@H](n2c(CO/N=C(\N)CN3CCCCC3)nc3cnc4[nH]ccc4c32)CC1 [Ex. 153, (Z*)—N′-((1-((1r,4r)-4-(Cyanomethyl)cyclohexyl)-1,6-dihydroimidazo[4,5-d]pyrrolo[2,3-b]pyridin-2-yl)methoxy)-2-(piperidin-1-yl)acetimidamide] | – | 512 | 3.7 |

Next, values leading:

| IC50 (Tyk2-JH1JH2) [nM] | IC50 (JAK3-JH1JH2) [nM] | IC50 (JAK1-JH1JH2) [nM] | Structure (SMILES) |
| --- | --- | --- | --- |
| – | 54.5 | 0.1 | CC(C)(CO)CNC(=O)Cc1nc2cnc3[nH]ccc3c2n1[C@H]1CC[C@H](CC#N)CC1 [Ex. 15, 2-(1-((1r,4r)-4-(Cyanomethyl)cyclohexyl)-1,6-dihydroimidazo[4,5-d]pyrrolo[2,3-b]pyridin-2-yl)-N-(3-hydroxy-2,2-dimethylpropyl)acetamide] |
| 3.7 | 37.7 | 0.1 | N#CC[C@H]1CC[C@H](n2c(-c3cn[nH]n3)nc3cnc4[nH]ccc4c32)CC1 [Ex. 16, 2-((1r,4r)-4-(2-(2H-1,2,3-Triazol-4-yl)imidazo[4,5-d]pyrrolo[2,3-b]pyridin-1(6H)-yl)cyclohexyl)acetonitrile] |
| 5.3 | 77.9 | 0.1 | N#CC[C@H]1CC[C@H](n2c(Cc3ccn[nH]3)nc3cnc4[nH]ccc4c32)CC1 [Ex. 25, 2-((1r,4r)-4-(2-((1H-Pyrazol-5-yl)methyl)imidazo[4,5-d]pyrrolo[2,3-b]pyridin-1(6H)-yl)cyclohexyl)acetonitrile] |
| 11.2 | 193 | 0.2 | N#CC[C@H]1CC[C@H](n2c(CC(=O)NCc3ccccc3)nc3cnc4[nH]ccc4c32)CC1 [Ex. 48, N-Benzyl-2-(1-((1r,4r)-4-(cyanomethyl)cyclohexyl)-1,6-dihydroimidazo[4,5-d]pyrrolo[2,3-b]pyridin-2-yl)acetamide] |
| 15.6 | 111 | 0.3 | N#CC[C@H]1CC[C@H](n2c(CC(=O)NCC3CCCCC3)nc3cnc4[nH]ccc4c32)CC1 [Ex. 69, 2-(1-((1r,4r)-4-(Cyanomethyl)cyclohexyl)-1,6-dihydroimidazo[4,5-d]pyrrolo[2,3-b]pyridin-2-yl)-N-(cyclohexylmethyl)acetamide] |
| 9.4 | 108 | 0.4 | N#CC[C@H]1CC[C@H](n2c(CNC(=O)Nc3ccccc3)nc3cnc4[nH]ccc4c32)CC1 [Ex. 70, 1-((1-((1r,4r)-4-(Cyanomethyl)cyclohexyl)-1,6-dihydroimidazo[4,5-d]pyrrolo[2,3-b]pyridin-2-yl)methyl)-3-phenylurea] |
| 11.3 | 459 | 0.5 | N#CC[C@H]1CC[C@H](n2c(CN/C(Cc3ccccc3)=N\O)nc3cnc4[nH]ccc4c32)CC1 [Ex. 103, (EZ)—N-((1-((1r,4r)-4-(Cyanomethyl)cyclohexyl)-1,6-dihydroimidazo[4,5-d]pyrrolo[2,3-b]pyridin-2-yl)methyl)-N-hydroxy-2-phenylacetimidamide] |
| 12.6 | 298 | 0.5 | N#CC[C@H]1CC[C@H](n2c(CC(=O)Nc3ccc(C(O)(C(F)(F)F)C(F)(F)F)cc3)nc3cnc4[nH]ccc4c32)CC1 [Ex. 104, 2-(1-((1r,4r)-4-(Cyanomethyl)cyclohexyl)-1,6-dihydroimidazo[4,5-d]pyrrolo[2,3-b]pyridin-2-yl)-N-(4-(1,1,1,3,3,3-hexafluoro-2-hydroxypropan-2-yl)phenyl)acetamide] |
| 17.3 | 273 | 0.6 | CC(C)(O)CNC(=O)c1nc2cnc3[nH]ccc3c2n1[C@H]1CC[C@H](CC#N)CC1 [Ex. 117, 1-((1r,4r)-4-(Cyanomethyl)cyclohexyl)-N-(2-hydroxy-2-methylpropyl)-1,6-dihydroimidazo[4,5-d]pyrrolo[2,3-b]pyridine-2-carboxamide] |
| 11.6 | 146 | 0.7 | N#CC[C@H]1CC[C@H](n2c(-c3cn[nH]c3)nc3cnc4[nH]ccc4c32)CC1 [Ex. 123, 2-((1r,4r)-4-(2-(1H-pyrazol-4-yl)imidazo[4,5-d]pyrrolo[2,3-b]pyridin-1(6H)-yl)cyclohexyl)acetonitrile] |
| 19.4 | 175 | 1.1 | COCCNC(=O)c1nc2cnc3[nH]ccc3c2n1[C@H]1CC[C@H](CC#N)CC1 [Ex. 145, 1-((1r,4r)-4-(Cyanomethyl)cyclohexyl)-N-(2-methoxyethyl)-1,6-dihydroimidazo[4,5-d]pyrrolo[2,3-b]pyridine-2-carboxamide] |
